These results are taken from publication PMC6445170, “VEGFR-2 inhibitors and apoptosis inducers: synthesis and molecular design of new benzo[g]quinazolin bearing benzenesulfonamide moiety” (Journal of Enzyme Inhibition and Medicinal Chemistry, 2017).

The target of this assay is T1, VEGFR-2 (Homo sapiens, UniProt P35968).
T1 construct: gene KDR; not described; endogenous activity said to be determined in MCF-7 cells, but compounds were incubated with 'enzyme' (AlphaScreen)
In words: AlphaScreen kinase assay, phosphotyrosine antibody. Type of assay: cell-based. The settings on record: 5 min preincubation, room temperature, VEGFR-2 activity determined in MCF-7 cells; for IC50: read-out: IC50 on VEGFR-2 enzyme (μm). From the text:
AlphaScreen kinase assay, phosphotyrosine antibody on VEGFR-2
On the technique in general: Alpha assays give light when donor and acceptor beads are brought close together.

T1 sequence (P35968 20-1356): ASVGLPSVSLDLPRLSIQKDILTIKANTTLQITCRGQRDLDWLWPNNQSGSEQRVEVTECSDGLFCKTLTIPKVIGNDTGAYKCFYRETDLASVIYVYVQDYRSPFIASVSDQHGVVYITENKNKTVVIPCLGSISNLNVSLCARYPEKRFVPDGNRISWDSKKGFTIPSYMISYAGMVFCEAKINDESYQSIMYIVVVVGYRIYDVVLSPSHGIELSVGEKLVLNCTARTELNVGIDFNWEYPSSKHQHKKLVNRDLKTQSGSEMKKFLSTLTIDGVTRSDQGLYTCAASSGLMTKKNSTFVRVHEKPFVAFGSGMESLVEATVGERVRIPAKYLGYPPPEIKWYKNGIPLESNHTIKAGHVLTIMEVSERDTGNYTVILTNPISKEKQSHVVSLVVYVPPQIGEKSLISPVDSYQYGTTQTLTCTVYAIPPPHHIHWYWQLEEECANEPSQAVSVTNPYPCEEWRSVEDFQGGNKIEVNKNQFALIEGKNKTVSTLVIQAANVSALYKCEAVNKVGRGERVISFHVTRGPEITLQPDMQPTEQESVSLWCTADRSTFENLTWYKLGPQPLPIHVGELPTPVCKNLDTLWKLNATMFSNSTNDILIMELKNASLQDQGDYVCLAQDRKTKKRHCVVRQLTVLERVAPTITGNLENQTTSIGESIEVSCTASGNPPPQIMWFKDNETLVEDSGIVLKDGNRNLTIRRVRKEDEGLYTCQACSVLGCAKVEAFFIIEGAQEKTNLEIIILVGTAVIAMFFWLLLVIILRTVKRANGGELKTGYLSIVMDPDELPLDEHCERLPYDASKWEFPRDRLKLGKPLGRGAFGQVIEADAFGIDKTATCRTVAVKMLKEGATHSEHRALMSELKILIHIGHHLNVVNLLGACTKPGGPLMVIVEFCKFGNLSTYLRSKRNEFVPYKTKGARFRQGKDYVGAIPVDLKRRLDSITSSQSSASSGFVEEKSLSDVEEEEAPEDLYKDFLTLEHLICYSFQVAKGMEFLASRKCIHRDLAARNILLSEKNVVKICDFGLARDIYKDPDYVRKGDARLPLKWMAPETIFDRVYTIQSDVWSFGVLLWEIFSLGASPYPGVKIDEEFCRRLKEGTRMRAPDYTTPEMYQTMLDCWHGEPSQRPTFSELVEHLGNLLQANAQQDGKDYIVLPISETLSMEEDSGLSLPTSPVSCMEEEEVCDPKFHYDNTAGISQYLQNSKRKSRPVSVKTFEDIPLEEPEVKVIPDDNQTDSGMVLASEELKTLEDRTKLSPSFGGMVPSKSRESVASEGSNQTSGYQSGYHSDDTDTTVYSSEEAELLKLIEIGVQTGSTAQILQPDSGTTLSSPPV

In the case of `NNC(=O)CSc1nc2cc3ccccc3cc2c(=O)n1-c1ccc(S(N)(=O)=O)cc1` [compound 5, 4-(2-(2-Hydrazinyl-2-oxoethylthio)-4-oxobenzo[g]quinazolin-3(4H)-yl)benzenesulfonamide], the “% Inhibition of VEGFR-2 enzyme” value is given as 68.44%.

Turning to `Cc1ccc(C)c(C=NNC(=O)CSc2nc3cc4ccccc4cc3c(=O)n2-c2ccc(S(N)(=O)=O)cc2)c1` [compound 6, 4-(2-(2-(2-(2,5-Dimethylbenzylidene)hydrazinyl)-2-oxoethylthio)-4-oxobenzo[g]quinazolin-3(4H)-yl)benzenesulfonamide], the “% Inhibition of VEGFR-2 enzyme” value is given as 69.95%.

For `Cc1ccc(C=NNC(=O)CSc2nc3cc4ccccc4cc3c(=O)n2-c2ccc(S(N)(=O)=O)cc2)cc1F` [compound 7, 4-(2-(2-(2-(3-Fluoro-4-methylbenzylidene)hydrazinyl)-2-oxoethylthio)-4-oxobenzo[g]quinazolin-3(4H)-yl)benzenesulfonamide], under “inhibitor concentration not stated”, the “% Inhibition of VEGFR-2 enzyme” value is listed as 72.19%.

Turning to `NS(=O)(=O)c1ccc(-n2c(SCC(=O)NN=Cc3ccc(Cl)cc3Cl)nc3cc4ccccc4cc3c2=O)cc1` [compound 9, 4-(2-(2-(2-(2,4-Dichlorobenzylidene)hydrazinyl)-2-oxoethylthio)-4-oxobenzo[g]-quinazolin-3(4H)-yl)benzenesulfonamide], the IC50 came out at 640 nM.

For the compound `NS(=O)(=O)c1ccc(-n2c(SCC(=O)NN=Cc3ccc(Br)cc3)nc3cc4ccccc4cc3c2=O)cc1` [compound 10, 4-(2-(2-(2-(4-Bromobenzylidene)hydrazinyl)-2-oxoethylthio)-4-oxobenzo[g]quinazolin-3(4H)-yl)benzenesulfonamide], the “% Inhibition of VEGFR-2 enzyme” value is given as 64.89%.

With `NS(=O)(=O)c1ccc(-n2c(SCC(=O)NN=Cc3ccc4c(c3)OCO4)nc3cc4ccccc4cc3c2=O)cc1` [compound 11, 4-(2-(2-(2-(Benzo[d][1,3]dioxol-5-ylmethylene)hydrazinyl)-2-oxoethylthio)-4-oxobenzo[g]quinazolin-3(4H)-yl)benzenesulfonamide], the “% Inhibition of VEGFR-2 enzyme” value is listed as 71.29%.

Turning to `NS(=O)(=O)c1ccc(-n2c(SCC(=O)N3NC(=O)CC3=O)nc3cc4ccccc4cc3c2=O)cc1` [compound 20, 4-(2-(2-(3,5-Dioxopyrazolidin-1-yl)-2-oxoethylthio)-4-oxobenzo[g]quinazolin-3(4H)-yl) benzenesulfonamide], the IC50 is 860 nM.

For the compound `CCOC(=O)c1cnn(C(=O)CSc2nc3cc4ccccc4cc3c(=O)n2-c2ccc(S(N)(=O)=O)cc2)c1N` [compound 22, Ethyl 5-amino-1-(2-(4-oxo-3-(4-sulfamoylphenyl)-3,4-dihydrobenzo[g]quinazolin-2-ylthio)acetyl)-1H-pyrazole-4-carboxylate], the IC50 came to 830 nM.

With `Cc1nn(C(=O)CSc2nc3cc4ccccc4cc3c(=O)n2-c2ccc(S(N)(=O)=O)cc2)c(N)c1C#N` [compound 23, 4-(2-(2-(5-Amino-4-cyano-3-methyl-1H-pyrazol-1-yl)-2-oxoethylthio)-4-oxobenzo[g]quinazo-lin-3(4H)-yl) benzenesulfonamide], the IC50 came to 1040 nM.

By IC50 is commonly meant the concentration at which inhibition is half-maximal.
